Reference: paper PMC10885983 (Antibiotics, 2024)
In brackets after ≈: the same amount, converted by molar mass. Read-outs that look alike come from different tables or passages of the source.

How the values were obtained:
MRSA clinical isolated = conditions: cited from earlier work
[1] = Pharmacokinetics of rhodomyrtone in rats after a single oral dose (HPLC-UV plasma analysis, non-compartment model); assay type: in vivo, Sprague Dawley rats; conditions: for AUC(0-t): read-out: AUC0–8; for Tmax / Vd/F: po; for k el: read-out: λz (converted)
Experimental: The HPLC method was used to quantify the concentration of rhodomyrtone in rat plasma after a single oral administration of 50 and 100 mg/kg. Blood samples were collected from tail veins at 0, 0.25, 0.5, 1, 2, 3, 4, 5, 6, 7 and 8 h. Rat plasma samples were prepared as described in Section 3.3. Rhodomyrtone was analyzed using a Bondapak C18 HPLC column at 25 °C. […] After several trials, the mobile phase was optimized to achieve good resolution and symmetric peak shapes for both rhodomyrtone and papaverine. […] An appropriate wavelength at 302 nm gave good sensitivity, with no interfering substance of other components. […] The curve of the rhodomyrtone concentration–time profiles was fitted in a non-compartment pharmacokinetic model due to the whole organism as a single compartment where the drug distributes homogeneously and instantaneously, resulting in a constant volume of distribution. The non-compartment model is multifaceted, and it is acceptable for bioequivalence studies.
An aliquot of each rat plasma sample (100 µL) or validation sample was pipetted into a 1.5 mL microcentrifuge tube, spiked with 25 µL papaverine working standard, then the rat plasma was deproteinized with 75 µL acetonitrile, mixed for 30 s and dropped off 5 min to precipitate the protein. The insoluble content was separated from plasma by centrifugation at 5000× g at 10 °C for 15 min, and we collected the supernatant. All samples were filtered through a 0.22 μm PTFE membrane filter. Subsequently, each sample was transferred into glass insert vials. The HPLC injection volume was 80 µL.
HPLC system consisted of Waters Alliance 2695, a model 2487 UV-Vis detector (Waters Associates, Milford, MA, USA). The maximum UV absorbance of rhodomyrtone was detected from 250 to 310 nm. Therefore, the detection wavelength was set at wavelength 302 nm. The chromatographic data were collected and analyzed using Millenium 32® software. Waters Bondapak C18 column, 5 μm, 4.6 mm × 150 mm, was used to set the standard for HPLC drug analytical measurement procedure. The mobile phase consisted of a mixture of acetonitrile and deionized water (80:20% v/v). The mobile phase was pre-filtered through a 0.20 μm filter and was delivered at a rate of 1 mL/min.
Male Sprague Dawley rats weighing 250–350 g were housed in separate stainless cages under a controlled environment (temperature at 22 ± 2 °C and relative humidity of 55 ± 10% with 12 h light and 12 h dark cycles) at the Southern Laboratory Animal Facility, Faculty of Science, Prince of Songkla University, Thailand. During the experimental period, they received a standard rodent diet with free access to ad libitum drinking water. Rats were divided into two groups, each consisting of 12 animals. Each group received a single oral dose of rhodomyrtone (dissolved in medium-chain triglyceride) at 50 mg/kg body weight (Group 1) and 100 mg/kg body weight (Group 2). The animals were fasted for 10 h prior to the experiment. An initial blood sample was taken by clipping the end of the animals’ tails. Blood samples (500 μL) were collected at time intervals of 0 (predose), 0.25, 0.5, 1, 2, 3, 4, 5, 6, 7 and 8 h. The samples were transferred to a heparinized microcentrifuge tube and centrifuged at 2500× g at 10 °C for 10 min. The plasma samples were stored at −80 °C until HPLC analysis.
The individual plasma concentration–time profiles were visually inspected to determine the maximum plasma concentration (Cmax), the minimum plasma concentration (Cmin) and the time to maximum plasma concentration (tmax). WinNonlin Version 1.1 (Scientific Consulting, Apex, NC, USA) was used to analyze the data and calculate for elimination half-life time (t1/2), elimination rate constant (λz), volume of distribution (Vz/F), area under the concentration–time curve between 0 and 8 h (AUC0–8) and the area under the concentration–time curve between 0 and infinity (AUC0–∞). The results were expressed as mean values ± standard deviation (SD).

[2] = test system: Staphylococcus aureus ATCC 29213; set-up: method as in PMID 23019189, PMID 34067029; conditions: cited from earlier work
MRSA = conditions: cited from earlier work
[3] = test system: Staphylococcus aureus clinical isolated; set-up: method as in PMID 30583020; conditions: cited from earlier work
[4] = set-up: method as in PMID 32793420; conditions: cited from earlier work
S. aureus or MRSA = test system: S. aureus or MRSA; set-up: method as in PMID 23029218; conditions: 45 passages of stepwise isolation of S. aureus or MRSA on Luria-Bertani agar with rhodomyrtone; cited from earlier work
[5] = Bench-top stability in plasma at 25 °C; assay type: in vitro ADME, rat; conditions: for Bench-top stability, Accuracy (%): n = 5
Experimental: The mean recovery was determined at low, medium and high concentrations from five replicates. The long-term storage stability at −80 °C was determined after 15, 30, 60 and 90 d. Bench-top stability testing was also conducted. […] The freeze–thaw cycles were stabilized. Rhodomyrtone was spiked in blank plasma, then stored in a freezer (−20 °C) and thawed every 24 h at room temperature (25 °C) for three cycles prior to extraction.

[6] = male, Sprague Dawley, plasma, rat, single oral dose 50 mg/kg, n = 12
[7] = male, Sprague-Dawley, plasma, rat, single oral dose 50 mg/kg, n = 12
[8] = male, Sprague-Dawley, plasma, rat, single oral dose 100 mg/kg, n = 12

In the case of CC(C)CC(=O)c1c(O)cc2c(c1O)[C@@H](CC(C)C)C1=C(O2)C(C)(C)C(=O)C(C)(C)C1=O [rhodomyrtone, Rhodomyrtone], the MIC (MRSA clinical isolated) is listed as 0.39 to 0.78 µg/mL, the half-life ([1]; male, Sprague Dawley, plasma, rat, oral, 50 to 100 mg/kg, read-out: terminal elimination phase half-life (t1/2) (converted)) is listed as roughly 2.5 h and the CL/F [1, 6] is listed as 266 mL/min/kg. It also gave an AUC(0-t) [1, 6] of 2680 ± 1090 ng·h/mL, a half-life ([1]; male, Sprague Dawley, plasma, rat, single oral dose 50 mg/kg, n = 12, read-out: t1/2 (converted)) of 2.2 ± 0.74 h and a CL/F ([1]; male, Sprague Dawley, plasma, rat, single oral dose 100 mg/kg, n = 12) of 221 mL/min/kg. For the same molecule, the half-life ([1]; male, Sprague Dawley, plasma, rat, single oral dose 100 mg/kg, n = 12, read-out: t1/2 (converted)) was 2.53 ± 0.92 h, the bioavailability ([1]; male, Sprague Dawley, rat, plasma, oral, estimated from SwissADME bioavailability score and AUC, no intravenous data) was roughly 10% and the Tmax ([1]; male, Sprague Dawley, rat, plasma, 50 mg/kg, rat, single oral dose 50 mg/kg, n = 12, mean ± SD, read-out: Tmax) was 1.92 ± 0.29 h. It also gave a Vd/F ([1]; male, Sprague Dawley, rat, plasma, 50 mg/kg, rat, single oral dose 50 mg/kg, n = 12, read-out: Vz/F) of 48.5 ± 16.9 L/kg, a Vd/F ([1]; male, Sprague Dawley, rat, plasma, 100 mg/kg, rat, oral, 50 and 100 mg/kg doses (not significantly different), read-out: apparent total volume of distribution (Vz/F)) of roughly 50 L/kg and a Tmax ([1]; male, Sprague Dawley, rat, plasma, 100 mg/kg, rat, oral, both 50 and 100 mg/kg doses, read-out: time to maximum plasma concentration (Tmax)) of 2 h. For the same molecule, the Tmax ([1]; male, Sprague Dawley, rat, plasma, 100 mg/kg, rat, single oral dose 100 mg/kg, n = 12, mean ± SD, read-out: Tmax) was 2 h, the Vd/F ([1]; male, Sprague Dawley, rat, plasma, 100 mg/kg, rat, single oral dose 100 mg/kg, n = 12, read-out: Vz/F) was 46.6 ± 13.8 L/kg and the concentration at 8 h ([1]; male, Sprague Dawley, rat plasma, oral 50 mg/kg, 8 h) was roughly 100 ng/mL. For the same molecule, the Cmax ([1]; male, Sprague Dawley, rat plasma, single oral dose 50 mg/kg, n = 12) was 570 ± 120 ng/mL, the Cmax ([1]; male, Sprague Dawley, rat plasma, single oral dose 100 mg/kg, n = 12) was 1310 ± 200 ng/mL and the AUC(0-inf) [1, 7] was 3410 ± 1040 ng·h/mL. The k el [1, 7] was 0.000139 s⁻¹, the AUC(0-inf) [1, 8] was 7820 ± 1530 ng·h/mL and the AUC(0-t) [1, 8] was 6650 ± 1130 ng·h/mL. The k el [1, 8] was 8.33e-05 s⁻¹, the Cmin ([1]; rat plasma, single oral dose 50 mg/kg, n = 12) was 140 ± 60 ng/mL and the Cmin ([1]; rat plasma, single oral dose 100 mg/kg, n = 12) was 310 ± 90 ng/mL. For the same molecule, the “time of rhodomyrtone concentrations above MIC (0.5–1 μg/mL) of most staphylococcal isolates” value ([1]; rat, oral 50 mg/kg) was “approximately 4 h”, the “Cmax relative to the MBCs for MRSA (0.03–1.00 μg/mL)” value ([1]; rat, oral 100 mg/kg) was 2–3 times and the “time of rhodomyrtone concentrations above MIC (0.5–1 μg/mL) of most staphylococcal isolates” value ([1]; rat, oral 100 mg/kg) was roughly 8 h. For the same molecule, the “AUC0–8 as share of AUC0–∞” value ([1]; rat, oral, 8 h sampling time) was “about 80%”, the MIC [2] was 0.5 µg/mL (≈ 1.13 µM) and the MBCs (MRSA) was 0.03 to 1.00 µg/mL. The MIC [3] was 0.5 to 2 µg/mL, the LD50 [4] was 2000 mg/kg and the resistance development (S. aureus or MRSA) was “not found to be resistant”. The “Bench-top stability, Accuracy (%)” value ([5]; 0 h, 0.1 µg/mL) was 108.10%, the “Bench-top stability, Accuracy (%)” value ([5]; 0 h, 100 µg/mL) was 97.34% and the “Bench-top stability, accuracy (range over all time points)” value ([5]; 0 to 8 h, 0.1 and 100 µg/mL) was 92–109%. The “Bench-top stability, Accuracy (%)” value ([5]; 1 h, 0.1 µg/mL) was 93.38%, the “Bench-top stability, Accuracy (%)” value ([5]; 1 h, 100 µg/mL) was 96.58% and the “Bench-top stability, Accuracy (%)” value ([5]; 2 h, 0.1 µg/mL) was 108.61%. The “Bench-top stability, Accuracy (%)” value ([5]; 2 h, 100 µg/mL) was 95.97%, the “Bench-top stability, Accuracy (%)” value ([5]; 4 h, 0.1 µg/mL) was 101.47% and the “Bench-top stability, Accuracy (%)” value ([5]; 4 h, 100 µg/mL) was 94.58%. For the same molecule, the “Bench-top stability, Accuracy (%)” value ([5]; 6 h, 0.1 µg/mL) was 101.24% and the “Bench-top stability, Accuracy (%)” value ([5]; 8 h, 0.1 µg/mL) was 95.96%.
